Earlier results, collected in patent US20220257649A1, “COMBINATION THERAPIES FOR MULTIPLE MYELOMA” (NantCell, Inc., priority 2018, published 2022).

Experiments:
multiple myeloma = settings: for rate of nearly complete response (CR): in combination with dexamethasone, induction therapy before ASCT; for rate of nearly CR: three-drug induction schedule: bortezomib-dexamethasone plus the named drug
[1] = tested on: relapsed or refractory multiple myeloma; settings: alone, with bortezomib, or with lenalidomide and low-dose dexamethasone
[2] = tested on: primary multiple myeloma cells; settings: in the presence of peripheral lymphocytes
IL-2Rβγ = target: T1, IL-2Rβγ (Homo sapiens, UniProt P14784+P31785); settings: IL-15 mutant
T1 sequence (P14784 27-551): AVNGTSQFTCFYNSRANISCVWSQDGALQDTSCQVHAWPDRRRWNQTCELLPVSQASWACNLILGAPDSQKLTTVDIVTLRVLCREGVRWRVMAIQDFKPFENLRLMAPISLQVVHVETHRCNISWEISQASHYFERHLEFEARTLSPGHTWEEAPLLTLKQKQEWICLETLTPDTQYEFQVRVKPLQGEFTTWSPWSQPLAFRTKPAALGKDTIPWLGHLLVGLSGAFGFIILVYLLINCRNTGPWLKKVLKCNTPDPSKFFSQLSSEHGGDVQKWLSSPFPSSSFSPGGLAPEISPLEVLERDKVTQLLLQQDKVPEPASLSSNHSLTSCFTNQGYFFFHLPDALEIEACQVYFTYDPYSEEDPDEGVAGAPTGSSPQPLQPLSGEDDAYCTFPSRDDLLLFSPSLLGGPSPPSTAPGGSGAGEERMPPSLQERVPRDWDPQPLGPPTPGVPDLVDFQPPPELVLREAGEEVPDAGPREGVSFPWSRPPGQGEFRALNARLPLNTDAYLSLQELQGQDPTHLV
T1 sequence (P31785 23-369): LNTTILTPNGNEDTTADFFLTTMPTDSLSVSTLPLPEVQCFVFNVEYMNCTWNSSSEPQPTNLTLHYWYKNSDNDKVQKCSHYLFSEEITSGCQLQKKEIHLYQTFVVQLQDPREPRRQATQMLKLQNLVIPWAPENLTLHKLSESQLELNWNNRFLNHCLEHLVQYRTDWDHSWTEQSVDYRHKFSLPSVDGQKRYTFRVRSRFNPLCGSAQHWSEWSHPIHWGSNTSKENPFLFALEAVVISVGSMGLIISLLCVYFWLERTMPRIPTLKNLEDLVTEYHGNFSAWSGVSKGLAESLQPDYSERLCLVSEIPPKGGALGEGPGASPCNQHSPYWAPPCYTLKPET

IL-15 activity = settings: in vitro and in vivo
[3] = following i.v. administration in mice
[4] = tested on: aggressive solid and hematological tumor models

Compound: O=C1CCC(N2C(=O)c3ccccc3C2=O)C(=O)N1 (stereo not drawn) [Thalidomide]
- rate of nearly complete response (CR) (multiple myeloma): 8%
- rate of nearly CR (multiple myeloma): 32%

Compound: CC(C)C[C@H](NC(=O)[C@H](Cc1ccccc1)NC(=O)c1cnccn1)B(O)O [bortezomib]
- rate of nearly complete response (CR) (multiple myeloma): 16%

Compound: O=P1(N(CCCl)CCCl)NCCCO1 (stereo not drawn) [cyclophosphamide]
- rate of nearly CR (multiple myeloma): 39%

Compound: COc1cccc2c1C(=O)c1c(O)c3c(c(O)c1C2=O)C[C@@](O)(C(=O)CO)C[C@@H]3O[C@H]1C[C@H](N)[C@H](O)[C@H](C)O1 [doxorubicin]
- rate of nearly CR (multiple myeloma): 7%

Compound: Nc1cccc2c1CN(C1CCC(=O)NC1=O)C2=O (stereo not drawn) [lenalidomide]
- rate of nearly complete response (CR) (multiple myeloma): 15%
- rate of nearly CR (multiple myeloma): 57%

Compound: Elotuzumab: humanized monoclonal IgG1 antibody directed against CS-1
- activity [1]: encouraging activity
- safety profile [1]: manageable safety profile
- antibody-dependent cellular cytotoxicity (ADCC) [2]: significant antibody-dependent cellular cytotoxicity (ADCC)

Compound: IL-15N72D: IL-15 mutant with increased ability to bind IL-2Rβγ; component of N-803
- ability to bind IL-2Rβγ (IL-2Rβγ): increased ability to bind IL-2Rβγ

Compound: N-803: IL-15 super agonist complex: IL-15 mutant (IL-15N72D) bound to an IL-15 receptor α/IgG1 Fc fusion protein
- IL-15 activity (IL-15 activity): highly potent IL-15 activity
- half-life [3]: 25 h
- anti-tumor activity ([4]; aggressive solid and hematological tumor models, immunocompetent mice): impressive anti-tumor activity
- resistance of cured tumor-bearing mice to re-challenge with the same tumor cells ([4]; mice cured after N-803 treatment): highly resistant to re- challenge
